The NIST ThermoML archive (doi:10.1021/acs.jced.6b00680)
± gives the expanded uncertainty stated by the source.

Key:
[1] = an = ratio of the nth substance listed; settings: 100 kPa, Liquid, Concentric cylinders viscometry
[2] = 101.33 kPa, Liquid, Concentric cylinders viscometry

C[N+](C)(C)CCO.[Cl-] [choline chloride] + OCCO
[1], a2 = 2
Settings | viscosity [mPa·s]
293.2 K | 60.9 ± 6.6
298.2 K | 51.4 ± 5.6
303.2 K | 44.3 ± 4.8
308.2 K | 38.1 ± 4.1
313.2 K | 33.5 ± 3.6
318.2 K | 29.4 ± 3.2
323.2 K | 26.1 ± 2.8
328.2 K | 23.3 ± 2.5
333.2 K | 21.1 ± 2.3
338.2 K | 19.3 ± 2.1
343.2 K | 17.6 ± 1.9
348.2 K | 16.3 ± 1.8
353.2 K | 15.2 ± 1.6

OCC(O)CO [glycerol]
[2]
Settings | viscosity [mPa·s]
296.5 K | 1252 ± 140
302.8 K | 673.4 ± 76
315.8 K | 260.6 ± 29
323.2 K | 148.9 ± 16
332.7 K | 97.5 ± 11
343.2 K | 51.9 ± 5.6
348.2 K | 42.8 ± 4.6
354.2 K | 34.9 ± 3.8

NC(N)=O [urea] + C[N+](C)(C)CCO.[Cl-]
[1], a1 = 2
Settings | viscosity [mPa·s]
293.2 K | 1685.8 ± 200
298.2 K | 1012.3 ± 120
303.2 K | 658.5 ± 74
308.2 K | 454.9 ± 51
313.2 K | 333.6 ± 37
318.2 K | 259.8 ± 29
323.2 K | 210.6 ± 23
328.2 K | 179.5 ± 20
333.2 K | 160.8 ± 18
338.2 K | 142.6 ± 16
343.2 K | 129 ± 14
348.2 K | 115.6 ± 13
353.2 K | 106.7 ± 12
